Tests used:
[1] = tested on: c-myc in 22RV-1 cells; assay: Human c-myc ELISA assay; assay type: cell-based; conditions: Homo sapiens; for Emax: 22Rv1, 18 h, read-out: Degradation of BRD4: Maximum inhibition (%) c-Myc ELISA in 22RV1 cells; for DC50: 22Rv1, read-out: Degradation of BRD4: DC50 (uM) c-Myc ELISA in 22RV1 cells
How it was run: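 22RV-1 cells treated 18 h with 8-point 1:3 compound dilutions (final top 300 nM or 1 μM, 0.1% DMSO). Cells lysed in RIPA buffer with protease/phosphatase inhibitors, and c-myc protein in cleared lysate quantified by ELISA against a standard curve. DC50 reported for c-myc suppression.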

[2] = tested on: SU-DHL-6 xenografts; assay: In vivo SU-DHL-6 xenografts efficacy; conditions: CB17 SCID mice
Protocol: In vivo SU-DHL-6 Xenografts Efficacy
The 4-5 weeks old male CB17 SCID mice were implanted subcutaneously with 5 million SU-DH-L6 GCB-DLBCL cells (in 200 ul volume of 3:1 matrigel:PBS). After 14 days, mice bearing 180-200 mm^3 tumors were randomized into three groups with ten mice in each group while ensuring identical (±5 mm^3) mean tumor volume in each group. […] Tumor volume was monitored twice per week using calipers and body weights were determined daily during the course of the study.

[3] = tested on: 22RV-1 tumor xenograft; assay: In vivo 22Rv1 xenografts efficacy; design: species or system mice; conditions: 14 day; OTX-015 as comparison (FIG. 7)
Protocol: Mice were housed in pathogen-free animal facilities at New England Life Sciences (NELS, New Haven, Conn.). All experiments were conducted under an IACUC protocol that was approved by the NELS IACUC committee. Male Nu/Nu mice and CB17 SCID mice were obtained at 4-5 weeks age from Charles River Laboratories and implanted subcutaneously with 5×10^6 22Rv1 cells or 5×10^6 VCaP cells in Matrigel (Corning Life Sciences). After 10-14 days, mice bearing >200 mm^3 tumors were randomized into indicated number of groups with ten mice in each group while ensuring identical (±5 mm^3) mean tumor volume in each group. Dosing was carried out through the indicated route and with the indicated schedule for each drug for up to three weeks, depending on the experiment. Mice were sacrificed eight hours after the final dose. Blood was collected, processed to plasma, and flash frozen for PK analysis. Tissues were harvested and flash frozen for further analysis. All PK analysis was carried out at Drumetix Laboratories (Greensboro, N.C.). 2 out of 10 animals in each study arm were randomly excluded in pharmacodynamic analysis, for greater technical ease of running a 20-well protein gel. For PSA ELISA, only samples with at least 25 uL plasma remaining after PK analysis were utilized using the Cell Signaling PathScan® Total PSA/KLK3 Sandwich ELISA Kit #14119 following the manufacturer's protocol. […]

| Compound | Emax [1] [%] | DC50 [1] [µM] | in vivo growth of SU-DHL-6 xenografts ([2]; 6MPK Q3D iv dosing, n=10 (FIG. 10)) | in vivo growth of SU-DHL-6 xenografts ([2]; daily po administration of 25MPK (FIG. 10)) | tumor response in 22RV-1 mice tumor xenograft model, comparator [3] |
| --- | --- | --- | --- | --- | --- |
| Cc1ncsc1-c1ccc([C@H](C)NC(=O)[C@@H]2C[C@@H](O)CN2C(=O)[C@@H](NC(=O)c2cc3cc(O[C@H]4C[C@@H](NC(=O)C[C@@H]5N=C(c6ccc(Cl)cc6)c6c(sc(C)c6C)-n6c(C)nnc65)C4)ccc3o2)C(C)(C)C)cc1 [Example 195, (2S,4R)-1-[(2S)-3,3-dimethyl-2-({5-[(1,3cis)-3-{2-[(9S)-7-(4-chlorophenyl)-4,5,13-trimethyl-3-thia-1,8,11,12-tetraazatricyclo[8.3.0.0^2,^6]trideca-2(6),4,7,10,12-pentaen-9-yl]acetamido}cyclobutoxy]-1-benzofuran-2-yl}formamido)butanoyl]-4-hydroxy-N-[(1S)-1-[4-(4-methyl-1,3-thiazol-5-yl)phenyl]ethyl]pyrrolidine-2-carboxamide] | 100 | < 0.01 | tumor regression |  |  |
| Cc1ncsc1-c1ccc([C@H](C)NC(=O)[C@@H]2C[C@@H](O)CN2C(=O)[C@@H](NC(=O)CN2CCN(C3CC4(C3)CN(C(=O)C[C@@H]3N=C(c5ccc(Cl)cc5)c5c(sc(C)c5C)-n5c(C)nnc53)C4)CC2)C(C)(C)C)cc1 [Example 360] | > 90 | 0.1 to 1 |  |  |  |
| Cc1cc(C(C(=O)N2C[C@H](O)C[C@H]2C(=O)NCc2ccc(Cl)cc2OCCOCCOCCOCCNC(=O)C[C@@H]2N=C(c3ccc(Cl)cc3)c3c(sc(C)c3C)-n3c(C)nnc32)C(C)C)on1 (some centres unmarked) [Example 361] | 100 | 0.01 to 0.1 |  |  |  |
| [2H]C([2H])([2H])C([C@H](NC(=O)c1cc2cc(O[C@H]3C[C@@H](NC(=O)C[C@@H]4N=C(c5ccc(Cl)cc5)c5c(sc(C)c5C)-n5c(C)nnc54)C3)ccc2o1)C(=O)N1C[C@H](O)C[C@H]1C(=O)N[C@@H](C)c1ccc(-c2scnc2C)cc1)(C([2H])([2H])[2H])C([2H])([2H])[2H] [Example 364, (2S,4R)-1-[(2S)-3,3-bis(^2H3)methyl-2-({5-[(1,3-cis)-3-{2-[(9S)-7-(4-chlorophenyl)-4,5,13-trimethyl-3-thia-1,8,11,12-tetraazatricyclo[8.3.0.0^2,^6]trideca-2(6),4,7,10,12-pentaen-9-yl]acetamido}cyclobutoxy]-1-benzofuran-2-yl}formamido)(4,4,4-^2H3)butanoyl]-4-hydroxy-N-[(1S)-1-[4-(4-methyl-1,3-thiazol-5-yl)phenyl]ethyl]pyrrolidine-2-carboxamide] | 100 | < 0.01 |  |  |  |
| Cc1ncsc1-c1ccc([C@H](C)NC(=O)[C@@H]2C[C@@H](O)CN2C(=O)[C@@H](NC(=O)CN2CCC(O[C@H]3C[C@H](NC(=O)c4ccc5c6ncc(-c7c(C)noc7C)cc6n([C@H](c6ccccc6)C6CCOCC6)c5c4)C3)CC2)C(C)(C)C)cc1 [Example 365, (2S,4R)-1-[(2S)-3,3-dimethyl-2-(2-{4-[(1,3-trans)-3-[3-(dimethyl-1,2-oxazol-4-yl)-5-[(S)-oxan-4-yl(phenyl)methyl]-5H-pyrido[3,2-b]indole-7-amido]cyclobutoxy]piperidin-1-yl}acetamido)butanoyl]-4-hydroxy-N-[(1S)-1-[4-(4-methyl-1,3-thiazol-5-yl)phenyl]ethyl]pyrrolidine-2-carboxamide] | 100 | < 0.01 |  |  |  |
| Cc1ncsc1-c1ccc([C@H](C)NC(=O)[C@@H]2C[C@@H](O)CN2C(=O)[C@@H](NC(=O)CN2CCC(O[C@H]3C[C@H](NC(=O)c4ccc5c6ncc(-c7c(C)noc7C)cc6n([C@@H](c6ccccc6)C6CCOCC6)c5c4)C3)CC2)C(C)(C)C)cc1 [Example 366, (2S,4R)-1-[(2S)-3,3-dimethyl-2-(2-{4-[(1,3-trans)-3-[3-(dimethyl-1,2-oxazol-4-yl)-5-[(R)-oxan-4-yl(phenyl)methyl]-5H-pyrido[3,2-b]indole-7-amido]cyclobutoxy]piperidin-1-yl}acetamido)butanoyl]-4-hydroxy-N-[(1S)-1-[4-(4-methyl-1,3-thiazol-5-yl)phenyl]ethyl]pyrrolidine-2-carboxamide] | 100 | < 0.01 |  |  |  |
| Cc1ncsc1-c1ccc([C@H](C)NC(=O)[C@@H]2C[C@@H](O)CN2C(=O)[C@@H](NC(=O)CN2CCC(N3C[C@@H]4C[C@H]3CN4C(=O)C[C@@H]3N=C(c4ccc(Cl)cc4)c4c(sc(C)c4C)-n4c(C)nnc43)CC2)C(C)(C)C)cc1 [Example 368, (2S,4R)-1-[(2S)-2-(2-{4-[(1S,4S)-5-{2-[(9S)-7-(4-chlorophenyl)-4,5,13-trimethyl-3-thia-1,8,11,12-tetraazatricyclo[8.3.0.0^2,6]trideca-2(6),4,7,10,12-pentaen-9-yl]acetyl}-2,5-diazabicyclo[2.2.1]heptan-2-yl]piperidin-1-yl}acetamido)-3,3-dimethylbutanoyl]-4-hydroxy-N-[(1S)-1-[4-(4-methyl-1,3-thiazol-5-yl)phenyl]ethyl]pyrrolidine-2-carboxamide] | 100 | 0.01 to 0.1 |  |  |  |
| Cc1sc2c(c1C)C(c1ccc(Cl)cc1)=N[C@@H](CC(=O)Nc1ccc(O)cc1)c1nnc(C)n1-2 [OTX015, reference compound] |  |  |  | no effect |  |
| Cc1sc2c(c1C)C(c1ccc(Cl)cc1)=N[C@@H](CC(=O)Nc1ccc(O)cc1)c1nnc(C)n1-2 [OTX-015, reference compound] |  |  |  |  | tumor growth inhibition |
